Measured values from ChEMBL document CHEMBL1201862, “PubChem BioAssay data set” (2004).
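Five concentrations, 48 hours, 96-well plates. Here, GI50 denotes the concentration required for 50% inhibition of growth.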 The source made the active and inactive calls. No stated cut-off is given here; in the data, active = GI50 up to about 1.1 µM and inactive = higher. Numbered stars: 1 amine (or outer) side, 2 acyl side, 3 side chain; on linkers, the order of the positions; unused ones are H or OH. Bridge positions count the residues as written; N and C are the ends. Square brackets hold non-standard residues; d marks the D form. Peptide text beside a SMILES is read from it. I, II: the chains in the order shown. Actinocin(9to1) = Cc1c2oc3c(C)ccc(C(=O)[*:1])c3nc-2c(C(=O)[*:2])c(N)c1=O; NMeH = CN[CH](Cc1c[nH]cn1)C(=O)O; Sar = CNCC(=O)O

Assays:
Assay in all cases: DTP human tumour cell line panel, 48 h
[1] = tested on: COLO 205
[2] = tested on: UACC-257
[3] = tested on: OVCAR-3
[4] = tested on: NCI-H460
[5] = tested on: OVCAR-5
[6] = tested on: NCI-H522
[7] = tested on: MDA-MB-435
[8] = tested on: K562
[9] = tested on: CCRF-CEM
[10] = tested on: HL-60
[11] = tested on: NCI/ADR-RES
[12] = tested on: SR
[13] = tested on: SF-268
[14] = tested on: ACHN
[15] = tested on: T47D
[16] = tested on: OVCAR-8
[17] = tested on: IGROV-1
[18] = tested on: SF-539
[19] = tested on: NCI-H23
[20] = tested on: M14
[21] = tested on: MDA-N
[22] = tested on: SNB-19
[23] = tested on: NCI-H226
[24] = tested on: SN12C
[25] = tested on: UACC-62
[26] = tested on: HCT-15
[27] = tested on: 786-0
[28] = tested on: SF-295
[29] = tested on: CAKI-1
[30] = tested on: MDA-MB-231
[31] = tested on: KM12
[32] = tested on: TK-10
[33] = tested on: SK-MEL-5
[34] = tested on: SNB-75
[35] = tested on: RXF 393
[36] = tested on: HOP-92
[37] = tested on: A498
[38] = tested on: HCC 2998
[39] = tested on: SK-MEL-28
[40] = tested on: OVCAR-4
[41] = tested on: EKVX
[42] = tested on: Hs-578T
[43] = tested on: SK-MEL-2
[44] = tested on: U-251
[45] = tested on: PC-3
[46] = tested on: LOX IMVI
[47] = tested on: SW-620
[48] = tested on: UO-31
[49] = tested on: Malme-3M
[50] = tested on: HT-29
[51] = tested on: SK-OV-3
[52] = tested on: HOP-62
[53] = tested on: MCF7
[54] = tested on: A549
[55] = tested on: MOLT-4
[56] = tested on: RPMI-8226
[57] = tested on: BT-549
[58] = tested on: DU-145

Cc1c2oc3c(C)ccc(C(=O)NC4C(=O)NC(C(C)C)C(=O)N5CCCC5C(=O)N(C)CC(=O)N(C)C(Cc5cnc[nH]5)C(=O)OC4C)c3nc-2c(C(=O)NC2C(=O)NC(C(C)C)C(=O)N3CCCC3C(=O)N(C)CC(=O)N(C)C(Cc3cnc[nH]3)C(=O)OC2C)c(N)c1=O (configuration not stated) (I: TVP[Sar][NMeH] / II: TVP[Sar][NMeH]; ester I:1-I:C, II:1-II:C; linker I:N-II:N via Actinocin(9to1); configuration not given here)
GI50 [1]: 31.3 µM (inactive)
GI50 [2]: > 100 µM (inactive)
GI50 [3]: > 100 µM (inactive)
GI50 [4]: 37.7 µM (inactive)
GI50 [5]: > 100 µM (inactive)
GI50 [6]: 16.8 µM (inactive)
GI50 [7]: 63.4 µM (inactive)
GI50 [8]: 39.4 µM (inactive)
GI50 [9]: 59 µM (inactive)
GI50 [10]: 63.7 µM (inactive)
GI50 [11]: > 100 µM (inactive)
GI50 [12]: 65.3 µM (inactive)
GI50 [13]: 67.6 µM (inactive)
GI50 [14]: 51.3 µM (inactive)
GI50 [15]: 47.5 µM (inactive)
GI50 [16]: > 100 µM (inactive)
GI50 [17]: 47.3 µM (inactive)
GI50 [18]: 28.8 µM (inactive)
GI50 [19]: 65.5 µM (inactive)
GI50 [20]: 68.5 µM (inactive)
GI50 [21]: 25.2 µM (inactive)
GI50 [22]: 45 µM (inactive)
GI50 [23]: 56.2 µM (inactive)
GI50 [24]: 57 µM (inactive)
GI50 [25]: 30.3 µM (inactive)
GI50 [26]: > 100 µM
GI50 [27]: 45.6 µM (inactive)
GI50 [28]: 45.6 µM (inactive)
GI50 [29]: 38.1 µM (inactive)
GI50 [30]: > 100 µM (inactive)
GI50 [31]: 62.1 µM (inactive)
GI50 [32]: > 100 µM (inactive)
GI50 [33]: 16.9 µM (inactive)
GI50 [34]: 66.8 µM (inactive)
GI50 [35]: 14.7 µM (inactive)
GI50 [36]: 40.6 µM (inactive)
GI50 [37]: > 10 µM (inactive)
GI50 [38]: 37.8 µM (inactive)
GI50 [39]: 39.4 µM (inactive)
GI50 [40]: > 100 µM (inactive)
GI50 [41]: > 100 µM (inactive)
GI50 [42]: 1 µM (active)
GI50 [43]: 26.3 µM (inactive)
GI50 [44]: 57.1 µM (inactive)
GI50 [45]: 55 µM (inactive)
GI50 [46]: 20.2 µM (inactive)
GI50 [47]: 27.4 µM (inactive)
GI50 [48]: 46.8 µM (inactive)
GI50 [49]: 55.7 µM (inactive)
GI50 [50]: 31.8 µM (inactive)
GI50 [51]: 69.3 µM (inactive)
GI50 [52]: 43.5 µM (inactive)
GI50 [53]: 30.4 µM (inactive)
GI50 [54]: 61.9 µM (inactive)
GI50 [55]: 37.3 µM (inactive)
GI50 [56]: 31.6 µM (inactive)
GI50 [57]: > 100 µM (inactive)

CC1CC(=O)NC2CC1C2(C)C (configuration not stated)
GI50 [1]: > 100 µM (inactive)
GI50 [2]: > 100 µM (inactive)
GI50 [3]: > 100 µM (inactive)
GI50 [4]: > 100 µM (inactive)
GI50 [5]: > 100 µM (inactive)
GI50 [6]: > 100 µM (inactive)
GI50 [7]: > 100 µM (inactive)
GI50 [8]: > 100 µM (inactive)
GI50 [9]: > 100 µM (inactive)
GI50 [10]: > 100 µM (inactive)
GI50 [12]: > 100 µM (inactive)
GI50 [13]: > 100 µM (inactive)
GI50 [14]: > 100 µM (inactive)
GI50 [15]: > 100 µM (inactive)
GI50 [16]: > 100 µM (inactive)
GI50 [17]: > 100 µM (inactive)
GI50 [58]: > 100 µM (inactive)
GI50 [19]: > 100 µM (inactive)
GI50 [20]: > 100 µM (inactive)
GI50 [21]: > 100 µM (inactive)
GI50 [22]: > 100 µM (inactive)
GI50 [23]: > 100 µM (inactive)
GI50 [24]: > 100 µM (inactive)
GI50 [25]: > 100 µM (inactive)
GI50 [26]: > 100 µM
GI50 [27]: > 100 µM (inactive)
GI50 [28]: > 100 µM (inactive)
GI50 [30]: > 100 µM (inactive)
GI50 [31]: > 100 µM (inactive)
GI50 [32]: > 100 µM (inactive)
GI50 [33]: > 100 µM (inactive)
GI50 [34]: > 100 µM (inactive)
GI50 [35]: > 100 µM (inactive)
GI50 [36]: > 100 µM (inactive)
GI50 [38]: > 100 µM (inactive)
GI50 [39]: > 100 µM (inactive)
GI50 [40]: > 100 µM (inactive)
GI50 [42]: > 100 µM (inactive)
GI50 [43]: > 100 µM (inactive)
GI50 [44]: > 100 µM (inactive)
GI50 [46]: > 100 µM (inactive)
GI50 [47]: > 100 µM (inactive)
GI50 [48]: > 100 µM (inactive)
GI50 [49]: > 100 µM (inactive)
GI50 [50]: > 100 µM (inactive)
GI50 [53]: > 100 µM (inactive)
GI50 [54]: > 100 µM (inactive)
GI50 [55]: > 100 µM (inactive)
GI50 [56]: > 100 µM (inactive)
GI50 [57]: > 100 µM (inactive)
